From US11697689B2, “Use of antibody against O-acetylated GD2 ganglioside to improve the therapeutic potential of drugs” (OGD2 PHARMA, priority 2016, dated 2023)
Where two headings read alike, the source gives them in different places.

Legend:
[1] = Systemic tolerability, body weight over the treatment period; type: in vivo, A/J mice; settings: same groups and doses as the NXS2 liver metastasis study
Description: Mean weight of group of mice (n=10) presented in FIG. 6 at day 0 was defined as 100% weight. Weight in each group remained stable for the period of treatment. Δ, mice treated with mAb 8B6; ◯, mice treated with anti-cancer agent; □, mice treated with chemotherapeutic drug plus mAb 8B6.
Weight loss is used as a sensitive marker for health monitoring. We therefore performed a parallel analysis of the body weight over the treatment period. […] The body-weight difference between the two groups treated with doxorubicin compared to the non-doxorubicin group, however, fails to be significant during the treatment period (p>0.05).

[2] = tested on: NXS2 neuroblastoma experimental liver metastasis; test: Murine NXS2 neuroblastoma experimental liver metastasis model; type: in vivo, A/J mice; settings: day 28 after NXS2 inoculation; mAb 8B6 150 μg cumulative i.v.; isotretinoin 10 mg/kg per os; topotecan 0.36 mg/kg i.p.; doxorubicin 1 mg/kg i.p.; vehicle 2.5±0.18 g; mean±SEM
Procedure: Mice (n=10/group) were inoculated with 2.5×10^5 NXS2 mouse neuroblastoma cells by i.v. injections. 8B6 mAb treatment was started on day 3 after tumor cell inoculation twice a week for 3 consecutive weeks (cumulative dose=150 μg, A-C). All chemotherapeutic treatments were started at day 10 post-tumor inoculation. Panel A: isotretinoin was given at 10 mg/kg, per os, five times weekly for 2 weeks. […] Panel C: doxorubicin was given by i.p. injections at 1 mg/kg five times weekly for 2 weeks. Mice were euthanized 28 days post-tumor inoculation. Anti-tumor efficacy was evaluated by determining the liver weight on the fresh specimen compared to the mice treated with vehicle only. The liver weight is indicative of hepatic metastasis number. The y-axis starts at 0.8 g corresponding to the average normal liver weight. Data are presented as the mean±SEM.
We inoculated 2.5×10^5 tumor cells by tail vein in PBS. […] Anti-OAcGD2 mAb 8B6 treatment was started at Day 3 after tumor cells injection. Mice received by i.v. injection twice a week 25 μg mAb 8B6 for 3 consecutive weeks; (day 3, 7, 10, 14, 17 and 21; total dose=150 μg). Isotretinoin was given orally diluted in Ora-Plus© at 10 mg/kg daily for 2 consecutive weeks (on days 10-14 and 17-21). […] Doxorubicin was given by i.p. injection at 1 mg/kg daily for two weeks (on days 10-14 and 17-21). Mice were sacrificed after 28 days post inoculation, and anti-tumor efficacy was evaluated by liver weight of the fresh specimen as well as hepatic metastasis number. • 6.2—Results
Anti-cancer agents were given at low doses as previously reported in the literature in order to minimize related side effects. Three days after i.v. NSX2 tumor cell inoculation, ten mice were assigned to treatment with single agent, or combination of mAb 8B6 and anti-cancer agents as described previously. On day 28 after tumor cell inoculation, we determined the number of liver metastases and the liver weight after mice euthanasia.

LAN-5 cells [3] = test: MTT cell proliferation assay, drug with or without mAb 8B6; type: cell-based, human; settings: for EC50: Homo sapiens, 48 hours
Procedure: Equivalent culture media volume was added to control wells. […] Cells were exposed to test agents for 48 hours.

LAN-1 cells [4] = test: as above; type: cell-based, human; settings: for EC50: Homo sapiens, 48 hours
Procedure: (§1) The antiproliferative activity of the anti-cancer agents was evaluated using the MIT Cell Proliferation Assay Kit (Roche Diagnostic, Indianapolis, USA). The MTT assay is based on the reduction of yellow tetrazolium MIT (3-(4,5-dimethylthiazolyl-2)-2,5-diphenyltetrazolium bromide) by metabolically active cells forming purple formazan crystals. The purple formazan is solubilized with detergent and quantified spectrophotometrically at 570 nm.
(§2) Cells in the log phase of growth were seeded into 96-well (5×10^3 for LAN-1 and NXS2 cells; 1×10^4 for IMR5 and LAN-5 cells) treated plates in 100 μl of complete media. The cells were allowed to attach during an overnight incubation prior to treating with test agents. […] Equivalent culture media volume was added to control wells. Three conditions were used: anti-cancer agent alone, mAb 8B6 alone, mAb 8B6+anti-cancer agent. Cells were exposed to test agents for 48 hours. Following the exposure to test agents, 15 μl of MIT reagent was added to each well. The plates were returned to the incubator for four hours. Following the incubation period, kit supplied detergent reagent (100 μl) was added to all wells. The plates were wrapped in plastic wrap to prevent evaporation and allowed to sit at room temperature in the dark overnight. The absorbance at 570 nm was measured the following day using a iMark™ Microplate Absorbance Reader plate reader (Bio-Rad). Assays were performed in quadruplicate and experiments were repeated three times. […] The median-effect equation used by CompuSyn® software derived from the mass-action law principle at equilibrium steady state. […] Percent of Control values were calculated by dividing the absorbance values for each test well by the No Drug Control average and multiplying by 100.
(§3) Combination data was analyzed using CompuSyn® software to calculate Combination Index values to assess synergy. […] The dosage, fraction affected and molar ratio of compounds tested in combination were entered into the CompuSyn® software for evaluation of the presence/absence of synergy. CompuSyn® assigns a Combination Index value which rates the level of compounds' inhibiting 50% of the cell proliferation. […] See Chou, PHARMACOL.
(§4) NXS2 cells were grown in DMEM 4.5 g/L de glucose with 10% heat-inactivated fetal calf serum, 2 mM L-Glutamine, 100 units/ml penicillin, and 100 μg/ml streptomycin, at 37° C. in 5% CO2.

IMR5 cells [5] = test: as above; type: cell-based, human; settings: for EC50: Homo sapiens, 48 hours
Procedure: as §1, §2, §3, §4

NXS2 cells [6] = test: as above; type: cell-based, murine; settings: for EC50: Mus musculus, 48 hours
Procedure: as §1, §2, §3, §4

LAN-1 cells [7] = test: Incorporation of anti-cancer agents in cells, flow cytometry; type: cell-based, human; settings: 5-FU and cisplatin 1.52 μM, doxorubicin […], mAb 8B6 40 μg/ml, 30 minutes at 37° C.
Procedure: FIG. 3: Internalization of 5-FU, Cisplatin and doxorubicin in neuroblastoma cells. LAN-1 cells were treated with 5-FU (1.52 μM)—Panel A, or Cisplatin (1.52 μM)—Panel B, or doxorubicin (4.7 μM)—Panels C and D with combinations of isotype-matched negative control mouse IgG3 (40 μg/ml) or anti-OAcGD2 mAb 8B6, anti-OAcGD2 mAb c8B6.14b, anti-OAcGD2 mAb c8B6.15b (40 μg/ml). Anti-cancer agents and mAb were incubated during 30 minutes at 37° C. Neuroblastoma cells were fixed with PFA 4% before FACS acquisition. Positive control was performed by treatment of fixed LAN-1 cells with saponin 0.05% in combination with anti-cancer agents during 30 minutes. Incorporation of anti-cancer agents in tumor cells was assessed by flow cytometry (excitation with a 535 nm laser) and results are expressed in percentage of cells having incorporated anti-cancer agent in total cell population.
Combinations of anti-OAcGD2 mAb 8B6 with other anti-cancer agents were also assayed on LAN-1 neuroblastoma cell line. In this experiment, incorporation of 5-FU, Cisplatin and doxorubicin within the cells in the presence of mAb 8B6 or CTRL-(IgG) was detected using flow cytometry (excitation with a 535 nm laser). Anti-cancer agents and mAb were incubated during 30 minutes at 37° C.

LAN-5 cells [8] = test: OAcGD2 expression (mAb 8B6 binding) after drug exposure, flow cytometry; settings: isotretinoin 8, topotecan 1, doxorubicin 5 μM (Table 1), mean ± SD, n = 3, untreated 13.2 ± 0.7
IMR5 cells [9] = test: as above; settings: isotretinoin 40, topotecan 1, doxorubicin 7 μM (Table 1), mean ± SD, n = 3, untreated 14.6 ± 0.4
NXS2 cells [10] = test: as above; settings: isotretinoin 75, topotecan 0.5, doxorubicin 3 μM (Table 1), mean ± SD
LAN-1 cells [11] = test: as above; settings: isotretinoin 40, topotecan 5, doxorubicin 3 μM (Table 1), mean ± SD, n = 3, untreated 12.1 ± 0.1
[12] = tested on: neuroblastoma cell lines NXS2, IMR5, LAN-1 and LAN-5; settings: NXS2, IMR5, LAN-1, LAN-5
Procedure: as §1
Cells in the log phase of growth were seeded into 96-well (5×10^3 for LAN-1 and NXS2 cells; 1×10^4 for IMR5 and LAN-5 cells) treated plates in 100 μl of complete media. The cells were allowed to attach during an overnight incubation prior to treating with test agents. […] Equivalent culture media volume was added to control wells. Three conditions were used: anti-cancer agent alone, mAb 8B6 alone, mAb 8B6+anti-cancer agent. Cells were exposed to test agents for 48 hours. Following the exposure to test agents, 15 μl of MIT reagent was added to each well. […] The absorbance at 570 nm was measured the following day using a iMark™ Microplate Absorbance Reader plate reader (Bio-Rad). […] Percent of Control values were calculated by dividing the absorbance values for each test well by the No Drug Control average and multiplying by 100.
Combination data was analyzed using CompuSyn® software to calculate Combination Index values to assess synergy. […]

[13] = tested on: HARCI glioblastoma primary cells; test: MTT assay, temozolomide with or without mAb 8B6; type: cell-based; settings: Homo sapiens; HARCl; temozolomide alone; 72 hours
Procedure: (§5) Tumor specimens were collected from patients with a histologic diagnosis of GBM. Tumors were harvested at the time of surgical resection and immediately put into culture after dissociation of the tumors using the gentleMACs™ Dissociator (Miltenyi) according to the manufacturer's instructions.
(§6) Equivalent culture media volume was added to control wells. […] Cells were exposed to test agents for 72 hours. Following the exposure to test agents, 15 μl of MTT reagent was added to each well.
(§7) Cell viability was measured using the MTT assay and half maximal effective concentration (EC50) was calculated as previously disclosed.

[14] = tested on: AMBMa glioblastoma primary cells; test: MTT assay, temozolomide with or without mAb 8B6; type: cell-based; settings: Homo sapiens, temozolomide alone, 72 hours
Procedure: as §5, §6, §7

[15] = tested on: DUASOII glioblastoma primary cells; test: MTT assay, temozolomide with or without mAb 8B6; type: cell-based; settings: Homo sapiens, temozolomide alone, 72 hours
Procedure: as §5, §6, §7

[16] = tested on: DUGAn glioblastoma primary cells; test: MTT assay, temozolomide with or without mAb 8B6; type: cell-based; settings: Homo sapiens, temozolomide alone, 72 hours
Procedure: as §5, §6, §7

[17] = tested on: GLIO 5 glioblastoma primary cells; test: MTT assay, temozolomide with or without mAb 8B6; type: cell-based; settings: Homo sapiens, temozolomide alone, 72 hours
Procedure: as §5, §6, §7

[18] = tested on: GUITh glioblastoma primary cells; test: MTT assay, temozolomide with or without mAb 8B6; type: cell-based; settings: Homo sapiens, temozolomide alone, 72 hours
Procedure: as §5, §6, §7

[19] = LA-N-5, drug alone, read-out: EC50
[20] = LA-N-5, with mAb 8B6 40 μg/ml, read-out: EC50 with mAb 8B6
[21] = LAN1, drug alone, read-out: EC50
[22] = LAN1, with mAb 8B6 40 μg/ml, read-out: EC50 with mAb 8B6
[23] = IMR-5, drug alone, read-out: EC50
[24] = IMR-5, with mAb 8B6 40 μg/ml, read-out: EC50 with mAb 8B6
[25] = with mAb 8B6 40 μg/ml, read-out: EC50 with mAb 8B6

SMILES | body weight over the treatment period [1] | mean liver weight [2] | EC50 (LAN-5 cells [3]; [19]) | EC50 (LAN-5 cells [3]; [20]) | EC50 (LAN-1 cells [4]; [21]) | EC50 (LAN-1 cells [4]; [22]) | EC50 (IMR5 cells [5]; [23]) | EC50 (IMR5 cells [5]; [24]) | EC50 (NXS2 cells [6]; drug alone, read-out: EC50) | EC50 (NXS2 cells [6]; [25]) | cells positive for the anti-cancer agent when incubated with mAb 8B6 versus agent alone and CTRL-(IgG) (LAN-1 cells [7]) | Expression level of OAcGD2 (MFI ratio mAb 8B6 / mAb 7H2) after 48 hours exposure (LAN-5 cells [8]) | Expression level of OAcGD2 (MFI ratio mAb 8B6 / mAb 7H2) after 48 hours exposure (IMR5 cells [9]) | Expression level of OAcGD2 (MFI ratio mAb 8B6 / mAb 7H2) after 48 hours exposure (NXS2 cells [10]; n = 3, untreated 7.3 ± 0.9) | Expression level of OAcGD2 (MFI ratio mAb 8B6 / mAb 7H2) after 48 hours exposure (LAN-1 cells [11]) | other results
CC[C@@]1(O)C(=O)OCc2c1cc1n(c2=O)Cc2cc3c(CN(C)C)c(O)ccc3nc2-1 [Topotecan, topotecan] | no loss of body weight | 1.22 ± 0.09 g | 12.4 µM | 0.004 µM | 0.771 µM | 0.015 µM | 0.011 µM | 0.007 µM | 0.45 µM | 0.15 µM | – | – | – | – | – | –
N.N.[Cl][Pt][Cl] [cisplatin] | – | – | – | – | – | – | – | – | – | – | more cells were positive | – | – | – | – | –
O=c1[nH]cc(F)c(=O)[nH]1 [5-FU, 5-Fluorouracil] | – | – | – | – | – | – | – | – | – | – | more cells were positive | – | – | – | – | –
COc1cccc2c1C(=O)c1c(O)c3c(c(O)c1C2=O)C[C@@](O)(C(=O)CO)C[C@@H]3O[C@H]1C[C@H](N)[C@H](O)[C@H](C)O1 [Doxorubicin, doxorubicin] | a loss of body weight after day 17 | 1.75 ± 0.09 g | 2.09 µM | 0.13 µM | 4.67 µM | 0.014 µM | 6.3 µM | 0.01 µM | 2.75 µM | 0.016 µM | more cells were positive | 14.36 ± 1.4 | 15.24 ± 0.21 | 6.48 ± 2.28 | 13.76 ± 1.8 | Expression level of OAcGD2 (MFI ratio mAb 8B6 / mAb 7H2) after 48 hours exposure (NXS2 cells [10]; n = 3, untreated 7.3 ± 0.9, listed as doxorubicin): remained unchanged; Combination index 50 Values (LAN-5 cells [3]; CompuSyn, below 1 = synergy): 0.16; Combination index 50 Values (LAN-1 cells [4]; CompuSyn, below 1 = synergy): 0.05; Combination index 50 Values (IMR5 cells [5]; CompuSyn, below 1 = synergy): 0.10; Combination index 50 Values (NXS2 cells [6]; CompuSyn, below 1 = synergy): 0.30; median combination index values across the tested neuroblastoma cell lines [12]: ≤ 0.30
Cn1nnc2c(C(N)=O)ncn2c1=O [temozolomide] | – | – | – | – | – | – | – | – | – | – | – | – | – | – | – | EC50 [13]: 13100 µM; EC50 [14]: 784 µM; EC50 [15]: 584 µM; EC50 [16]: 1120 µM; EC50 [17]: 1590 µM; EC50 [18]: 3160 µM
CC1=C(/C=C/C(C)=C/C=C/C(C)=C\C(=O)O)C(C)(C)CCC1 [Isotretinoin, isotretinoin] | no loss of body weight | 2.0 ± 0.24 g | 37.2 µM | 31.3 µM | 7.4 µM | 4.3 µM | 32.9 µM | 24 µM | 75.7 µM | 59.3 µM | – | 16.8 ± 0.7 | 19.2 ± 0.8 | 7.5 ± 1.1 | 12.0 ± 0.1 | Expression level of OAcGD2 (MFI ratio mAb 8B6 / mAb 7H2) after 48 hours exposure (NXS2 cells [10]; n = 3, untreated 7.3 ± 0.9, listed as isotretinoin): remained unchanged
